Experimental data from PMC166128 (BMC Infectious Diseases, 2003).
Like-named read-outs stand apart in the source and are kept apart here.

Assays:
[1] = system: VV, VSV, HSV-1, HSV-2, Coxsackie virus B4 and poliovirus-1; details: cited from earlier work
[2] = system: vaccinia virus; format: cell-based
[3] = system: vaccinia virus WR strain; format: cell-based
[4] = system: vaccinia virus Western Reserve (WR) strain; format: cell-based
[5] = system: vaccinia virus WR strain; format: cell-based; details: 16 h
[6] = system: HeLa S3 cells; assay: Cell proliferation assay, 3H-thymidine uptake; details: 2 days + 16 h, single experiment
[7] = system: CV-1 cells; assay: Cytostatic activity; details: CV-1 cells seeded at 3.5 × 10^3 cells/well; 24 h incubation; cells counted
[8] = system: vaccinia virus IHD-J (EEV); format: cell-based
[9] = system: monkeypox; details: read-out: EC50 (monkeypox); cited from earlier work
[10] = system: cowpox; details: read-out: EC50 (cowpox); cited from earlier work
[11] = system: vaccinia; details: read-out: EC50 (vaccinia); cited from earlier work
[12] = system: camelpox; details: read-out: EC50 (camelpox); cited from earlier work
[13] = system: vaccinia virus International Health Department-J (IHD-J) strain; format: cell-based

| Compound | % inhibition ([2]; 25 µg/mL) | titer ([2]; 25 µg/mL) | % inhibition ([2]; 50 µg/mL) | titer ([2]; 50 µg/mL) | % inhibition ([3]; 25 µg/mL) | titer ([3]; 25 µg/mL) | % inhibition ([3]; 50 µg/mL) | titer ([3]; 50 µg/mL) | % inhibition ([5]; 25 µg/mL) | titer ([5]; 25 µg/mL) | % inhibition ([5]; 50 µg/mL) | titer ([5]; 50 µg/mL) | CC50 Cell proliferation [6] | CC50 Cytostatic activity [7] | EC50 IHD-J (EEV) CV-1 [8] | further results |
| --- | --- | --- | --- | --- | --- | --- | --- | --- | --- | --- | --- | --- | --- | --- | --- | --- |
| O=C(O)c1ccc(-c2c3nc(c(-c4ccc(C(=O)O)cc4)c4ccc([nH]4)c(-c4ccc(C(=O)O)cc4)c4nc(c(-c5ccc(C(=O)O)cc5)c5ccc2[nH]5)C=C4)C=C3)cc1 [TPPC, meso-tetra(4-carboxyphenyl)porphyrin] | – | – | – | – | – | – | – | – | – | – | – | – | – | – | – | EC50s for VV, VSV, HSV-1, HSV-2, Coxsackie virus B4 and poliovirus-1 [1]: ≥ 20 µg/mL |
| C=CC1=C(C)c2cc3[n-]c(cc4nc(cc5[n-]c(cc1n2)c(C)c5C=C)C(C)=C4CCC(=O)O)c(CCC(=O)O)c3C.[Zn+2] [ZnPPIX, zinc protoporphyrin] | 92 ± 1% | 2.1 × 10^4 pfu/mL | 99 ± 7% | 3.2 × 10^3 pfu/mL | 98% | 2.5 × 10^5 pfu/mL | 99% | 1.0 × 10^5 pfu/mL | 65 ± 0.3% | 7.2 × 10^5 pfu/mL | 70 ± 4% | 6.4 × 10^5 pfu/mL | 25 µg/mL | 370 µg/mL | 38 ± 7.8 µg/mL | EC50 WR CV-1 [4]: 15 ± 12 µg/mL |
| Nc1ccn(C[C@@H](CO)OCP(=O)(O)O)c(=O)n1 [cidofovir] | – | – | – | – | – | – | – | – | – | – | – | – | – | – | – | EC50 [9]: 27 µM; EC50 [10]: 58 µM; EC50 [11]: 46.2 µM; EC50 [12]: 2.3 µM |
| Fe meso-tetrakis(3,4-disulfonatomesityl)porphyrin [FeTMPS] | – | – | – | – | – | – | – | – | – | – | – | – | – | – | – | EC50s for VV, VSV, HSV-1, HSV-2, Coxsackie virus B4 and poliovirus-1 [1]: ≥ 20 µg/mL |
| copper hematoporphyrin [CuHPIX] | 80 ± 2% | 5.0 × 10^4 pfu/mL | 91 ± 2% | 2.3 × 10^4 pfu/mL | 93% | 1.1 × 10^6 pfu/mL | 97% | 4.5 × 10^5 pfu/mL | 33 ± 9% | 1.3 × 10^6 pfu/mL | 71 ± 4% | 6.3 × 10^5 pfu/mL | 36 µg/mL | – | 1.1 ± 0.4 µg/mL | EC50 WR BSC-40 [4]: 0.03 ± 0.01 µg/mL; EC50 WR CV-1 [4]: 7.8 ± 0.9 µg/mL; EC50 IHD-J CV-1 [13]: 1.5 ± 0.4 µg/mL; EC50 IHD-J (EEV) BSC-40 [8]: 0.32 ± 0.13 µg/mL |
| sulfonated 5,10,15,20-tetra-naphthalen-1-yl-porphyrin [TNapPS] | 87 ± 5% | 3.3 × 10^4 pfu/mL | 95 ± 2% | 1.3 × 10^4 pfu/mL | 98% | 3.5 × 10^5 pfu/mL | 98% | 2.6 × 10^5 pfu/mL | 73 ± 16% | 3.5 × 10^5 pfu/mL | 92 ± 1% | 1.0 × 10^5 pfu/mL | – | 400 µg/mL | 1.0 ± 0.1 µg/mL | – |
| sulfonated copper phthalocyanine [CuPcS(3444)] | 92 ± 3% | 2.1 × 10^4 pfu/mL | 90 ± 2% | 2.4 × 10^4 pfu/mL | 60% | 6.3 × 10^6 pfu/mL | 74% | 4.1 × 10^6 pfu/mL | 49 ± 21% | 9.3 × 10^5 pfu/mL | 59 ± 2% | 8.3 × 10^5 pfu/mL | > 500 µg/mL | > 1000 µg/mL | 8.2 ± 1.3 µg/mL | EC50 IHD-J CV-1 [13]: 14 ± 5.3 µg/mL; EC50 IHD-J (EEV) BSC-40 [8]: 50 ± 7 µg/mL |
